Laboratory results: PubChem BioAssay AID256 (DTP/NCI, 2004)
Values joined by “and” are separate entries in the source; they are usually repeats but may differ in a detail not shown here. Equal values may be shown once. Inconclusive results and toxic doses are left out. The calls were made as follows: active = survival T/C of 150% or more; inactive = T/C below 125% in these data.

System: CD2F1 mice, L1210 leukemia ip, survival T/C
Test: NCI In Vivo Anticancer Drug Screen. Data for tumor model L1210 Leukemia (intraperitoneal) in CD2F1 (CDF1) mice
Settings: endpoint: mean survival time, higher = longer survival
Summary of the method: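 Read-out first: treated-group measurement over vehicle-control measurement, expressed as a ratio. Animals bore a transplanted tumor line and were dosed with compound or vehicle.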

[1] = dose: 100.0 mg/kg/injection, schedule: Q04DX002 (ip), vehicle: saline with Tween-80
[2] = dose: 200.0 mg/kg/injection, schedule: Q04DX002 (ip), vehicle: saline with Tween-80
[3] = dose: 400.0 mg/kg/injection, schedule: Q04DX002 (ip), vehicle: saline with Tween-80
[4] = dose: 50.0 mg/kg/injection, schedule: Q01DX009 (ip), vehicle: saline with Tween-80
[5] = dose: 100.0 mg/kg/injection, schedule: Q01DX009 (ip), vehicle: saline with Tween-80
[6] = dose: 200.0 mg/kg/injection, schedule: Q01DX009 (ip), vehicle: saline with Tween-80
[7] = dose: 100.0 mg/kg/injection, schedule: Q04DX003 (ip), vehicle: saline with Tween-80
[8] = dose: 200.0 mg/kg/injection, schedule: Q04DX003 (ip), vehicle: saline with Tween-80
[9] = dose: 400.0 mg/kg/injection, schedule: Q04DX003 (ip), vehicle: saline with Tween-80
[10] = dose: 400.0 mg/kg/injection, schedule: Q01DX009 (ip), vehicle: saline with Tween-80
[11] = dose: 100.0 mg/kg/injection, schedule: Q01DX001 (ip), vehicle: saline
[12] = dose: 200.0 mg/kg/injection, schedule: Q01DX001 (ip), vehicle: saline
[13] = dose: 400.0 mg/kg/injection, schedule: Q01DX001 (ip), vehicle: saline
[14] = dose: 12.5 mg/kg/injection, schedule: Q04DX003 (ip), vehicle: saline with Tween-80
[15] = dose: 25.0 mg/kg/injection, schedule: Q04DX003 (ip), vehicle: saline with Tween-80
[16] = dose: 12.5 mg/kg/injection, schedule: Q01DX009 (ip), vehicle: saline sonified

Measured: T/C

COC(=O)c1ccc(OC)c2nc3c(C=O)c(OC)c(C)c(OC)c3nc12
inactive: dose: 100.0 mg/kg/injection, schedule: Q01DX001 (ip), vehicle: saline with Tween-80 94 % of control | [1] 98 % of control | dose: 200.0 mg/kg/injection, schedule: Q01DX001 (ip), vehicle: saline with Tween-80 95 % of control | [2] 106 % of control | dose: 400.0 mg/kg/injection, schedule: Q01DX001 (ip), vehicle: saline with Tween-80 103 % of control | [3] 106 % of control

O=C1OC2(c3ccccc31)c1ccccc1-c1ccccc12
inactive: [4] 97 % of control | [5] 100 % of control | [6] 100 % of control

ClCc1ccc2ccccc2n1
inactive: [5] 109 % of control | [7] 104 % of control | [6] 104 % of control | [8] 104 % of control | [9] 101 % of control

O=C(NNC(=O)c1ccncc1)NS(=O)(=O)c1ccc(Cl)cc1
inactive: dose: 50.0 mg/kg/injection, schedule: Q01DX009 (ip), vehicle: Klucel (hydroxypropylcellulose) (HPC) 101 % of control | dose: 100.0 mg/kg/injection, schedule: Q01DX009 (ip), vehicle: Klucel (hydroxypropylcellulose) (HPC) 90 % of control | dose: 200.0 mg/kg/injection, schedule: Q01DX009 (ip), vehicle: Klucel (hydroxypropylcellulose) (HPC) 97 % of control

CCCCCCCCCCCC(=O)NC(=S)Nc1cccc(C(F)(F)F)c1
inactive: dose: 100.0 mg/kg/injection, schedule: Q01DX009 (ip), vehicle: other 95 % of control | dose: 200.0 mg/kg/injection, schedule: Q01DX009 (ip), vehicle: other 103 % of control | dose: 400.0 mg/kg/injection, schedule: Q01DX009 (ip), vehicle: other 103 % of control

Cc1ccc(NC(=O)OCCOc2ccc(Cl)cc2)cc1C
inactive: [4] 96 % of control | [5] 92 % of control | [6] 87 % of control

O=[N+]([O-])Nc1ccc(C(c2ccc(N[N+](=O)[O-])cc2)c2ccc([N+](=O)[O-])cc2)cc1
inactive: [1] 95 % of control | [2] 88 % of control | [3] 88 % of control

COc1cc(/C=C/c2ccc3ccccc3n2)cc(OC)c1OC
inactive: [5] 94 % of control | [7] 104 % of control | [6] 91 % of control | [8] 96 % of control | [10] 89 % of control | [9] 98 % of control

S=c1nc(-c2ccccc2)c(-c2ccccc2)n[nH]1
inactive: dose: 75.0 mg/kg/injection, schedule: Q01DX009 (ip), vehicle: saline 93 % of control | dose: 150.0 mg/kg/injection, schedule: Q01DX009 (ip), vehicle: saline 98 % of control

O=C1OC(=O)C2C3CC(C(Br)C3Br)C12 (stereo not drawn)
inactive: [11] 97 % of control | [5] 106 % of control | [12] 98 % of control | [6] 104 % of control | [13] 97 % of control | [10] 101 % of control

C=CCOCC(O)C[As](=O)(O)c1ccc(OC)cc1 (stereo not drawn)
inactive: dose: 6.25 mg/kg/injection, schedule: Q04DX003 (ip), vehicle: saline with Tween-80 92 % of control | [14] 101 % of control | [15] 98 % of control

O=C(CCBr)c1ccc(Cl)cc1
inactive: dose: 100.0 mg/kg/injection, schedule: Q01DX009 (ip), vehicle: saline sonified 97 % of control

NCCCNCCNCCCN
inactive: dose: 25.0 mg/kg/injection, schedule: Q04DX003 (ip), vehicle: saline 101 % of control | dose: 50.0 mg/kg/injection, schedule: Q04DX003 (ip), vehicle: saline 101 % of control | dose: 100.0 mg/kg/injection, schedule: Q04DX003 (ip), vehicle: saline 97 % of control

Cc1cc(NCCN(C(C)C)C(C)C)nc(/N=C(\N)Nc2ccc(Cl)c(C(F)(F)F)c2)n1
inactive: dose: 1.25 mg/kg/injection, schedule: Q01DX009 (ip), vehicle: Klucel (hydroxypropylcellulose) (HPC) 98 % of control | dose: 2.5 mg/kg/injection, schedule: Q01DX009 (ip), vehicle: Klucel (hydroxypropylcellulose) (HPC) 103 % of control | dose: 5.0 mg/kg/injection, schedule: Q01DX009 (ip), vehicle: Klucel (hydroxypropylcellulose) (HPC) 105 % of control | dose: 10.0 mg/kg/injection, schedule: Q01DX009 (ip), vehicle: Klucel (hydroxypropylcellulose) (HPC) 101 % of control | dose: 20.0 mg/kg/injection, schedule: Q01DX009 (ip), vehicle: Klucel (hydroxypropylcellulose) (HPC) 100 % of control | dose: 40.0 mg/kg/injection, schedule: Q01DX009 (ip), vehicle: Klucel (hydroxypropylcellulose) (HPC) 88 % of control

c1ccc(COCC2OC(C3N(c4ccccc4)CCN3c3ccccc3)C(OCc3ccccc3)C2OCc2ccccc2)cc1 (stereo not drawn)
inactive: dose: 12.5 mg/kg/injection, schedule: Q01DX005 (ip), vehicle: distilled water + Tween-80 102 % of control | dose: 25.0 mg/kg/injection, schedule: Q01DX005 (ip), vehicle: distilled water + Tween-80 98 % of control | dose: 50.0 mg/kg/injection, schedule: Q01DX005 (ip), vehicle: distilled water + Tween-80 102 % of control | dose: 100.0 mg/kg/injection, schedule: Q01DX005 (ip), vehicle: distilled water + Tween-80 97 % of control | dose: 200.0 mg/kg/injection, schedule: Q01DX005 (ip), vehicle: distilled water + Tween-80 92 % of control

O=C1OCCC1=P(c1ccccc1)(c1ccccc1)c1ccccc1
inactive: [4] 100 % of control | [5] 96 % of control | [6] 96 % of control

CC1(C)CC=C(c2ccccc2)OC1c1ccccc1 (stereo not drawn)
inactive: dose: 100.0 mg/kg/injection, schedule: Q04DX002 (ip), vehicle: other 98 % of control | dose: 200.0 mg/kg/injection, schedule: Q04DX002 (ip), vehicle: other 94 % of control | dose: 400.0 mg/kg/injection, schedule: Q04DX002 (ip), vehicle: other 102 % of control

OCCCc1nc2ccccc2[nH]1
inactive: [7] 102 % of control | [8] 107 % of control | [9] 98 % of control

CCC(C)[N+](=O)[O-] (stereo not drawn)
inactive: dose: 50.0 mg/kg/injection, schedule: Q01DX001 (ip), vehicle: saline 94 % of control | [11] 98 % of control | [12] 102 % of control

CC1CCCC(CN=Cc2ccccc2O)[N-]1.CC1CCCC(CN=Cc2ccccc2O)[N-]1.[Ni+2] (stereo not drawn)
inactive: dose: 6.25 mg/kg/injection, schedule: Q04DX002 (ip), vehicle: saline with Tween-80 98 % of control | dose: 12.5 mg/kg/injection, schedule: Q04DX002 (ip), vehicle: saline with Tween-80 95 % of control | dose: 25.0 mg/kg/injection, schedule: Q04DX002 (ip), vehicle: saline with Tween-80 91 % of control and 95 % of control | dose: 50.0 mg/kg/injection, schedule: Q04DX002 (ip), vehicle: saline with Tween-80 91 % of control | [1] 97 % of control

Cc1cc[n+](C)c(-c2ccccc2)c1
inactive: dose: 6.25 mg/kg/injection, schedule: Q01DX009 (ip), vehicle: saline sonified 100 % of control | [16] 101 % of control | dose: 25.0 mg/kg/injection, schedule: Q01DX009 (ip), vehicle: saline sonified 109 % of control

COc1cc2c(c(OC)c1OC)-c1ccc(OC)c(=O)cc1[C@@H](NC(=O)CF)CC2
inactive: dose: 0.37 mg/kg/injection, schedule: Q01DX009 (ip), vehicle: saline 109 % of control

[Cl][Pd][Cl]
inactive: [16] 95 % of control | [14] 107 % of control | [15] 103 % of control | dose: 50.0 mg/kg/injection, schedule: Q04DX003 (ip), vehicle: saline with Tween-80 91 % of control

CCC(=O)OCc1cc2ccccc2c(-c2c(O)c(CN3CCOCC3)cc3ccccc23)c1O
inactive: [1] 95 % of control | [2] 91 % of control | [3] 91 % of control

NC(=O)c1cc2ccncc2c2ccccc12
inactive: [7] 97 % of control | [8] 97 % of control | [9] 106 % of control

Cc1ccc([N+](=O)[O-])c(P(=O)(O)O)c1
inactive: dose: 25.0 mg/kg/injection, schedule: Q01DX009 (ip), vehicle: saline with Tween-80 91 % of control | [4] 88 % of control | [5] 87 % of control

Cc1cc(-c2ccccc2)cc(=S)[nH]1
inactive: dose: 100.0 mg/kg/injection, schedule: Q01DX001 (ip), vehicle: carboxymethylcellulose (CMC) 88 % of control | dose: 200.0 mg/kg/injection, schedule: Q01DX001 (ip), vehicle: carboxymethylcellulose (CMC) 94 % of control | dose: 400.0 mg/kg/injection, schedule: Q01DX001 (ip), vehicle: carboxymethylcellulose (CMC) 95 % of control

O=[N+]([O-])c1ccccc1N/N=C/c1ccccc1
inactive: [11] 100 % of control | [12] 97 % of control | [13] 97 % of control
